Experimental data as given in patent publication US6538029B1, “Methods for treatment of renal cell carcinoma” (Cell Pathways, priority 2002, dated 2003).
Like-named read-outs stand apart in the source and are kept apart here.

Assays:
PDE10 from 786-O = PDE10 from 786-O (Homo sapiens, UniProt Q9Y233); experiment: Inhibition and kinetics of PDE10 from 786-O (pooled fractions of the center peak); format: biochemical; settings: for IC50: pooled center-peak fractions
Experimental: (§1) Fractions were pooled from a 786-O profile from the center peak.
as §1
(§2) Protein assays were determined using the Bio-Rad DC Protein Assay. A nonlinear regression to the Michalis-Menten equation in Prism was used to determine the Km and Vmax.
as §2

[1] = molecular target: cloned and expressed human PDE10 (Homo sapiens, UniProt Q9Y233); settings: cited from earlier work; for Published IC50s on cloned PDE10, cAMP / Published IC50s on cloned PDE10, cGMP / IC50: literature values
cloned and expressed human PDE10, sequence (Q9Y233 1-779 isoform Q9Y233-1): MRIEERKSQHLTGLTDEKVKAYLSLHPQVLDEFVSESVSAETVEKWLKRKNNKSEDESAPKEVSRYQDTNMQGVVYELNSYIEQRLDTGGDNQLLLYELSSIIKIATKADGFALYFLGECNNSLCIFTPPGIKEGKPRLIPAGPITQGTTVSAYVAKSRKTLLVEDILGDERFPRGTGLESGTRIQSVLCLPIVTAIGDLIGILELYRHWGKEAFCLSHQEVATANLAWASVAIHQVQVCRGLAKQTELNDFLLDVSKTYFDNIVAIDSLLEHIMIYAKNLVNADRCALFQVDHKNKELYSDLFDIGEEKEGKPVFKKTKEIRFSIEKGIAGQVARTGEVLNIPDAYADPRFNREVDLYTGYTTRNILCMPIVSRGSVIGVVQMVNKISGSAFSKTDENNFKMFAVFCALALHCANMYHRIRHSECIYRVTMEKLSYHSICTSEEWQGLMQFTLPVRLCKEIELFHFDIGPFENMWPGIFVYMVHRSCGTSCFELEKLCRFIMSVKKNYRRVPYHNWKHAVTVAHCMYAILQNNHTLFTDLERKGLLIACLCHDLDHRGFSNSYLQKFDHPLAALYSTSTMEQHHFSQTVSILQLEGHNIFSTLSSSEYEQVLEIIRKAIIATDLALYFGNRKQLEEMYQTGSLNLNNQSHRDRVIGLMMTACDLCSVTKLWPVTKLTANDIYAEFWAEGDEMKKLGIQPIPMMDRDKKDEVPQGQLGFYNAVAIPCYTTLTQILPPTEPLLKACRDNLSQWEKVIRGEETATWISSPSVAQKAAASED

786-O cells [2] = experiment: Apoptosis on 786-O cells (Roche Cell Death Assay); format: cell-based, human; settings: 48 hours with drug
Experimental: Testing of PDE10-Inhibiting Compounds for Apoptosis on Renal Carcinoma (786-O) Cells. […] After 24 hours, the media was removed and the same media containing the drug was added to the cells (0.1% DMSO final concentration). After 48 hours, apoptosis was detected using the Roche Cell Death Assay.

786-O cells [3] = format: cell-based; settings: Homo sapiens, 786-0, 144 h; 6 days with drug, sulforhodamine B
Experimental: Testing of Neoplastic Cell Growth Inhibition of PDE10-Inhibiting Compounds on Renal Cell Carcinoma (786-O) Cells. […] After 24 hours, the media was removed, and the same media containing the drug was added to the cells (0.1% DMSO final concentration).

[4] = μM IC50s on PDE10 from 786-O, cAMP, cAMP substrate at 0.09 μM, table: N = 2 average, EHNA, Milrinone, Rolipram N = 1
[5] = μM IC50s on PDE10 from 786-O, cGMP, cGMP substrate at 5.5 μM, table: N = 2 average, EHNA, Milrinone, Rolipram N = 1
[6] = read-out: μM IC50s on PDE10 from 786-O, cAMP, cAMP substrate at 0.09 μM, table: N = 2 average, EHNA, Milrinone, Rolipram N = 1
[7] = read-out: μM IC50s on PDE10 from 786-O, cGMP, cGMP substrate at 5.5 μM, table: N = 2 average, EHNA, Milrinone, Rolipram N = 1
[8] = read-out: Published IC50s on cloned PDE10, cAMP, cAMP as substrate
[9] = read-out: Published IC50s on cloned PDE10, cGMP, cGMP as substrate

PDE10 from 786-O, sequence (Q9Y233 290-1055 limits assumed): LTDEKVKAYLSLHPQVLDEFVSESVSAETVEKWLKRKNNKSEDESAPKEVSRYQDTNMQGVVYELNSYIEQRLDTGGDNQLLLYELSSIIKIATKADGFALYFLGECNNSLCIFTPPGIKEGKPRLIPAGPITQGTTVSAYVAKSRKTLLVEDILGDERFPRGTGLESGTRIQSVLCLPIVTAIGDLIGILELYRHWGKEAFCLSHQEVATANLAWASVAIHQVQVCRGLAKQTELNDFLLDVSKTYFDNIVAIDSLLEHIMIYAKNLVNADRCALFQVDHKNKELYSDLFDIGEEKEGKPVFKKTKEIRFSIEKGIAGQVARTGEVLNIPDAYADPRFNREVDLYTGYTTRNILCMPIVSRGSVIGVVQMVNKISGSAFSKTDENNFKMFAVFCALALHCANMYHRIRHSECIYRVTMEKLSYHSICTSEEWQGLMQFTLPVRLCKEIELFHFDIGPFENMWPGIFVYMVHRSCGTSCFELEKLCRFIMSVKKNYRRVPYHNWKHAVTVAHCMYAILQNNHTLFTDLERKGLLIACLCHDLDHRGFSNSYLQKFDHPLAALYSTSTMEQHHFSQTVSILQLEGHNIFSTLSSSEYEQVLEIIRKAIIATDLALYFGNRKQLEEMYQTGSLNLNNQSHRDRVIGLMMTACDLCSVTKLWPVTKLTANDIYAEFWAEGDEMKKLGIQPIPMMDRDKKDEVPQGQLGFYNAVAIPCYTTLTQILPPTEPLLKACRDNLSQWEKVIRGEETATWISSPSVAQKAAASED

| IC50 (PDE10 from 786-O; [4]) [µM] | IC50 (PDE10 from 786-O; [5]) [µM] | IC50 (PDE10 from 786-O; [6]) [µM] | IC50 (PDE10 from 786-O; [7]) [µM] | Structure (SMILES) | Published IC50s on cloned PDE10, cGMP ([1]; cGMP as substrate) [µM] | IC50 [1, 8] [µM] | IC50 [1, 9] [µM] | other results |
| --- | --- | --- | --- | --- | --- | --- | --- | --- |
| 38 | 45 |  |  | CCOC(=O)C1=C[C@]2(CC)CCCN3CCc4c(n1c1ccccc41)[C@@H]32 [Vinpocetine] | 73 |  |  | Published IC50s on cloned PDE10, cAMP ([1]; cAMP as substrate): 77 µM |
|  |  | 4.5 | 6.3 | CC(C)Cn1c(=O)n(C)c(=O)c2[nH]cnc21 [IBMX] |  | 17 | 11 |  |
|  |  | 60 | 46 | CCCCCC[C@@H]([C@@H](C)O)n1cnc2c(N)ncnc21 (racemic) [EHNA] |  | > 100 | > 100 |  |
| 13 | 17 |  |  | CCCOc1ccccc1-c1nc2nn[nH]c2c(=O)[nH]1 [Zaprinast] | 14 |  |  |  |
| 84 | 103 |  |  | Cc1[nH]c(=O)c(C#N)cc1-c1ccncc1 [Milrinone] | >100 |  |  | Published IC50s on cloned PDE10, cAMP ([1]; cAMP as substrate): >100 µM |
|  |  | 2.8 | 3.2 | O=C(O)C1CCN(c2nc(NCc3ccc4c(c3)OCO4)c3cc(Cl)ccc3n2)CC1 [Example E4021] |  | 7.2 | 4.2 |  |
|  |  | 5.2 |  | Nc1nc2c(ncn2[C@@H]2O[C@@H]3COP(=O)(O)O[C@H]3[C@H]2O)c(=O)[nH]1 [cGMP, cyclic 3′,5′-guanosine monophosphate] |  | 14 |  | Km (PDE10 from 786-O; Michaelis-Menten plot, 30 min at 30° C., FIG. 4, 6, read-out: Km for the 786-O PDE): 6.5 µM; Vmax (PDE10 from 786-O; pooled center-peak fraction): 461 pmol/min/mg; Km (PDE10 from 786-O; pooled fractions 57-75 of PDE10, read-out: Km, average of three values (stdev in parenthesis)): 5.5 µM; Vmax ratio of cGMP/cAMP (PDE10 from 786-O; times higher than Vmax for cAMP): 2.4; Vmax ratio of cGMP/cAMP, cloned and expressed PDE10 ([1]; Fujishige et al. 1999): 2.2; Km ([1]; Fujishige et al. 1999, read-out: Km published for cloned and expressed PDE10): 7.2 µM |
|  |  |  |  | CC1=C(CC(=O)O)c2cc(F)ccc2/C1=C\c1ccc(S(C)(=O)=O)cc1 [Exisulind, exisulind, reference compound] |  |  |  | IC50 (PDE10 from 786-O; IC50 on PDE10 from 786-O (inhibition of cGMP PDE activity), FIG. 8, 9): 134 µM; Induction of apoptosis in the 786-O cells (786-O cells [2]): did not show significant induction of apoptosis; IC50 (786-O cells [3]): 273 µM |
|  |  |  |  | COc1cc(/C=C2/C(C)=C(CC(=O)NCc3ccccc3)c3cc(F)ccc32)cc(OC)c1OC [Compound A, 1 H-indene-3-acetamide, 5-fluoro-2-methyl-N-(phenylmethyl)-1-[(3,4,5-trimethoxyphenyl)methylene]-, (1Z)] |  |  |  | IC50 (PDE10 from 786-O; IC50 on PDE10 from 786-O (inhibition of cGMP PDE activity), FIG. 10): 0.031 µM; IC50 (786-O cells [2]; Homo sapiens, 786-0, read-out: IC50 for induction of apoptosis in the 786-O cell line): 0.071 µM; IC50 (786-O cells [3]): 0.03 µM |
